Counter-ions that a name gives are not always drawn.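 Cells were grown in 96-well plates and exposed to each compound for 48 hours at five concentrations; endpoints were interpolated linearly between bracketing concentrations, or set to the highest concentration if not reached. At the GI50, growth is halved.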 Activity calls are given as the source filed them. Rule as the data show it: active = GI50 up to about 1.1 µM and inactive = higher.
What was measured:
Experiment in all cases: growth of human tumour cells (NCI), 48 h
[1] = tested on: MDA-MB-435
[2] = tested on: T47D
[3] = tested on: M14
[4] = tested on: UACC-257
[5] = tested on: CAKI-1
[6] = tested on: SF-268
[7] = tested on: TK-10
[8] = tested on: CCRF-CEM
[9] = tested on: LOX IMVI
[10] = tested on: OVCAR-3
[11] = tested on: COLO 205
[12] = tested on: HOP-62
[13] = tested on: UACC-62
[14] = tested on: IGROV-1
[15] = tested on: NCI/ADR-RES
[16] = tested on: MDA-MB-231
[17] = tested on: OVCAR-5
[18] = tested on: HCC 2998
[19] = tested on: SK-MEL-2
[20] = tested on: HL-60

SMILES	GI50 [1]	GI50 [2]	GI50 [3]	GI50 [4]	GI50 [5]	GI50 [6]	GI50 [7]	GI50 [8]	GI50 [9]	GI50 [10]	GI50 [11]	GI50 [12]	GI50 [13]	GI50 [14]	GI50 [15]	GI50 [16]	GI50 [17]	GI50 [18]	GI50 [19]	GI50 [20]
Cc1nn(-c2ccccc2)c2nc3c(c(C)nn3-c3ccccc3)c(-c3ccccc3Br)c12	> 100 µM (inactive)	> 100 µM (inactive)	> 100 µM (inactive)	> 100 µM (inactive)	> 100 µM (inactive)	> 100 µM (inactive)	> 100 µM (inactive)	> 100 µM (inactive)	> 100 µM (inactive)	> 100 µM (inactive)	> 100 µM (inactive)	> 100 µM (inactive)	> 100 µM (inactive)	> 100 µM (inactive)	> 100 µM (inactive)	> 100 µM (inactive)	> 100 µM (inactive)	> 100 µM (inactive)		
NCCNCC(O)CO (stereo not given)	> 100 µM (inactive)	> 100 µM (inactive)	> 100 µM (inactive)	> 100 µM (inactive)	> 100 µM (inactive)	> 100 µM (inactive)	> 100 µM (inactive)		> 100 µM (inactive)	> 100 µM (inactive)	> 100 µM (inactive)	> 100 µM (inactive)	> 100 µM (inactive)	> 100 µM (inactive)	> 100 µM (inactive)	> 100 µM (inactive)	> 100 µM (inactive)		> 100 µM (inactive)	> 100 µM (inactive)
CCOC(=O)NC(N(C)C(C(C)C)P(=O)(OCC)OCC)(C(F)(F)F)C(F)(F)F (stereo not given)	> 100 µM (inactive)	> 100 µM (inactive)	> 100 µM (inactive)	> 100 µM (inactive)	> 100 µM (inactive)	> 100 µM (inactive)	> 100 µM (inactive)	> 100 µM (inactive)	> 100 µM (inactive)	> 100 µM (inactive)	> 100 µM (inactive)	> 100 µM (inactive)	> 100 µM (inactive)	> 100 µM (inactive)	> 100 µM (inactive)	> 100 µM (inactive)	> 100 µM (inactive)		> 100 µM (inactive)	> 100 µM (inactive)
Cc1cc2nc3c(C#N)c(-c4ccccc4)cc(Nc4cccc(C(F)(F)F)c4)n3c2cc1C	5.13 µM (inactive)	4.16 µM (inactive)	4.78 µM (inactive)	3.48 µM (inactive)	4.85 µM (inactive)	6.97 µM (inactive)	7.69 µM (inactive)	3.6 µM (inactive)	9.12 µM (inactive)	2.21 µM (inactive)	4.17 µM (inactive)	9.98 µM (inactive)			4.07 µM (inactive)	3.43 µM (inactive)	12.9 µM (inactive)	3.84 µM (inactive)	2.61 µM (inactive)	
NCCc1cc(O)c(O)cc1O [OXIDOPAMINE HYDROCHLORIDE]	18.9 µM (inactive)	23.1 µM (inactive)	20 µM (inactive)	20.4 µM (inactive)	18.6 µM (inactive)	21.8 µM (inactive)	62.5 µM (inactive)	3.97 µM (inactive)		55.7 µM (inactive)	41.9 µM (inactive)	22.9 µM (inactive)	31.2 µM (inactive)	19.3 µM (inactive)	34.4 µM (inactive)	19.5 µM (inactive)	37.1 µM (inactive)	56.2 µM (inactive)	43.5 µM (inactive)	
Cc1cc(CNC(=O)OCc2ccccc2)c(C)c2c1Oc1ccccc1O2	> 100 µM (inactive)	25.8 µM (inactive)	69.7 µM (inactive)	> 100 µM (inactive)	21.1 µM (inactive)	20.7 µM (inactive)	41.8 µM (inactive)	> 100 µM (inactive)	> 100 µM (inactive)	57.8 µM (inactive)	50.1 µM (inactive)	17.4 µM (inactive)	26.5 µM (inactive)	24.2 µM (inactive)	19 µM (inactive)	6.67 µM (inactive)	43.4 µM (inactive)	> 100 µM (inactive)	< 0.01 µM (active)	
Cc1cnc2sn(-c3ccc([N+](=O)[O-])cc3)c(=O)c2c1	> 100 µM (inactive)	> 100 µM (inactive)	> 100 µM (inactive)			54.1 µM (inactive)	75.2 µM (inactive)		72.6 µM (inactive)	36.1 µM (inactive)	> 100 µM (inactive)	14.9 µM (inactive)	64.7 µM (inactive)	57.3 µM (inactive)	> 100 µM (inactive)	82.2 µM (inactive)	> 100 µM (inactive)	> 100 µM (inactive)	45.7 µM (inactive)	
Nc1nc(Cl)c2nnn(CC3CCC(CO)C3)c2n1 (stereo not given)	> 100 µM (inactive)	> 100 µM (inactive)	> 100 µM (inactive)	> 100 µM (inactive)	> 100 µM (inactive)	> 100 µM (inactive)	> 100 µM (inactive)	> 100 µM (inactive)	> 100 µM (inactive)	> 100 µM (inactive)	> 100 µM (inactive)	> 100 µM (inactive)	> 100 µM (inactive)		> 100 µM (inactive)	> 100 µM (inactive)	> 100 µM (inactive)	> 100 µM (inactive)	> 100 µM (inactive)	
O=C1CC(Cl)c2c1csc2Br (stereo not given)	15.1 µM (inactive)	23.1 µM (inactive)	13.9 µM (inactive)	16.3 µM (inactive)	5.61 µM (inactive)	16.8 µM (inactive)	16 µM (inactive)	2.65 µM (inactive)	14.1 µM (inactive)	16.3 µM (inactive)	15.2 µM (inactive)	14.5 µM (inactive)	15.3 µM (inactive)	16.5 µM (inactive)	20.9 µM (inactive)		18.2 µM (inactive)	17.4 µM (inactive)	15.1 µM (inactive)	21.4 µM (inactive)
CCOC(=O)c1c(SCCN2CCCC2)n(-c2ccccc2)c(=S)n(-c2ccccc2)c1=O	2.55 µM (inactive)	2.72 µM (inactive)	1.75 µM (inactive)	1.69 µM (inactive)	2.29 µM (inactive)	4.85 µM (inactive)	1.67 µM (inactive)	0.951 µM (active)	1.82 µM (inactive)	1.78 µM (inactive)	1.84 µM (inactive)	18.5 µM (inactive)	2.79 µM (inactive)	2.03 µM (inactive)	25.8 µM (inactive)	2.08 µM (inactive)	26.9 µM (inactive)	1.87 µM (inactive)	11.4 µM (inactive)	
Cc1ccc(Cl)c2c(=O)c3ccc(N)cc3sc12		18.9 µM (inactive)	28.4 µM (inactive)	25.8 µM (inactive)	24.9 µM (inactive)	27.9 µM (inactive)	38.3 µM (inactive)	14.7 µM (inactive)		20 µM (inactive)	16.6 µM (inactive)	19.7 µM (inactive)	14.9 µM (inactive)	10 µM (inactive)	15.1 µM (inactive)	22.2 µM (inactive)	28 µM (inactive)		20.1 µM (inactive)	2.99 µM (inactive)
O=S(=O)(c1ccc(/N=N/O)nc1)c1ccc2ccccc2c1		40 µM (inactive)	> 100 µM (inactive)	> 100 µM (inactive)	88.5 µM (inactive)	> 100 µM (inactive)	94 µM (inactive)	29.3 µM (inactive)		> 100 µM (inactive)	97.3 µM (inactive)	> 100 µM (inactive)	98.4 µM (inactive)	54.8 µM (inactive)	> 100 µM (inactive)	> 100 µM (inactive)	> 100 µM (inactive)		> 100 µM (inactive)	47.8 µM (inactive)
CCCCCCCCCCCCCCCCCCNc1ccn(C2OC(COP(=O)(O)OCC3CCC(n4cnc5c(=O)[nH]cnc54)O3)C(O)C2O)c(=O)n1 (stereo not given)	> 100 µM (inactive)	95.5 µM (inactive)	> 100 µM (inactive)	> 100 µM (inactive)	> 100 µM (inactive)	> 100 µM (inactive)	19.5 µM (inactive)	29.3 µM (inactive)	> 100 µM (inactive)	> 100 µM (inactive)	> 100 µM (inactive)	> 100 µM (inactive)	> 100 µM (inactive)	84.1 µM (inactive)	> 100 µM (inactive)		35.4 µM (inactive)		> 100 µM (inactive)	
c1ccc(Nc2nnc(Cn3ccc4ccccc43)s2)cc1	83.2 µM (inactive)	27.7 µM (inactive)	59.8 µM (inactive)	> 100 µM (inactive)	22.4 µM (inactive)	56.8 µM (inactive)	76.6 µM (inactive)	49.3 µM (inactive)	56 µM (inactive)	24.5 µM (inactive)	45.1 µM (inactive)	29.9 µM (inactive)	88.5 µM (inactive)	46.9 µM (inactive)	34.6 µM (inactive)	38.3 µM (inactive)	> 100 µM (inactive)	> 100 µM (inactive)	> 100 µM (inactive)	
c1ccc2c(c1)nc1n2CCCn2ccnc2-1		57.3 µM (inactive)	> 100 µM (inactive)			> 100 µM (inactive)			> 100 µM (inactive)	> 100 µM (inactive)	> 100 µM (inactive)	> 100 µM (inactive)	> 100 µM (inactive)	> 100 µM (inactive)	27 µM (inactive)	> 100 µM (inactive)	> 100 µM (inactive)		> 100 µM (inactive)	0.225 µM (active)
